Laboratory results reported in patent US20070092551A1, “Therapeutic agent” (TAKARA BIO INC., priority 2003, published 2007).

Legend:
3T3-L1 cells = test: Induction of adipocyte differentiation (amount of triglyceride biosynthesis); format: cell-based; details: Mus musculus, 3T3-L1, X=(S−N)/(P−N) of amount of triglyceride, P=insulin positive control, read-out: Action for Induction of Differentiation
Protocol: Induction of adipocyte differentiation was carried out by partially modifying the above-mentioned method of Rubin C. S. et al. In addition, as a test compound, a compound prepared in Examples mentioned above or a commercially available compound was used. 3T3-L1 cells (ATCC CCL-92.1) were suspended in a 10% fetal bovine serum (manufactured by Bio Whittaker)-containing Dulbecco's modified Eagle's medium (manufactured by Sigma, D6046) containing 200 μM ascorbic acid so as to have a density of 4×10^3 cells/mL, and the suspension was put in each well of a 12-well microtiter plate in an amount of 2 ml per well. The cells were cultured at 37° C. for 7 days in the presence of 5% carbon dioxide gas. On the seventh day, the medium was exchanged with a 10% fetal bovine serum (manufactured by Bio Whittaker)-containing Dulbecco's modified Eagle's medium containing 200 μM ascorbic acid and 0.25 μM dexamethasone, and a test compound dissolved in dimethyl sulfoxide in a concentration shown in each of Tables 16 to 19 was added to each well. Here, there were set a group with addition of 4 μL of an aqueous solution containing 5 mg/mL insulin (manufactured by TAKARA BIO INC.) as a positive control, and a group with addition of dimethyl sulfoxide as a negative control. After 45 hours, the medium was exchanged with a 10% fetal bovine serum-containing Dulbecco's modified Eagle's medium containing 200 μM ascorbic acid. A test compound, 2 μL of an aqueous solution containing 5 mg/mL insulin as a positive control, or dimethyl sulfoxide as a negative control was put to each well in the same concentration. The cells were cultured for additional 7 days. In addition, the medium was exchanged on after 2 days and after 5 days, and at that time, a test compound, 2 μL of an aqueous solution containing 5 mg/mL insulin as a positive control, or dimethyl sulfoxide as a negative control was put to each well in the same concentration.
The amount of triglyceride in the adipocytes was determined as an index of induction of differentiation into mature adipocytes, and also, as the evaluation of insulin-mimetic action.
After the termination of the culture, the medium was removed, and the cells were washed twice with a phosphate buffered saline. One milliliter of a solvent of hexane:isopropanol=3:2 was added to the cells. The mixture was allowed to stand at room temperature for 30 minutes, and thereafter the supernatant was collected. The procedures were repeated again, and 2 mL of the supernatant was concentrated to dryness. The precipitate was dissolved in 100 μL of isopropanol, and the amount of triglyceride contained in 10 μL of the solution was determined using a triglyceride E-test (manufactured by Wako Pure Chemical Industries, Ltd., code 432-40201). In addition, all the determinations were carried out twice. The action for induction of differentiation was calculated by the following calculation formula, and shown by four ranks of +++, ++, + and +/−. • S: Amount of triglyceride in the presence of a test compound; • N: Amount of triglyceride in the negative control; and • P: Amount of triglyceride in the positive control; X=(S−N)/(P−N) (Judgment of Action for Induction of Differentiation)

[1] = tested on: mature adipocytes (3T3-L1 cells); test: Enhancing action on glucose uptake (2-deoxyglucose) into mature adipocytes; format: cell-based; details: Mus musculus, 3T3-L1, X=(S−N)/(P−N) of 2-deoxyglucose uptake, P=insulin 1 μg/mL, read-out: Enhancing Action on Glucose Uptake
Protocol: The induction of differentation into nature adipocytes was carried out by partially modifying the above-mentioned method of Rubin C. S. et al. 3T3-L1 cells (ATCC CCL-92.1) were suspended in a 10% fetal bovine serum (manufactured by Bio Whittaker)-containing Dulbecco's modified Eagle's medium (manufactured by Sigma, D6046) containing 200 μM ascorbic acid so as to have a density of 4×10^3 cells/mL, and the suspension was put in each well of a collagen type I-coated 12-well plate (Iwaki Glass Co., Ltd., code 4815-010) in an amount of 2 mL per well. The cells were cultured at 37° C. for 7 days in the presence of 5% carbon dioxide gas. On the seventh day, the medium was exchanged with 2 mL of a 10% fetal bovine serum (manufactured by Bio Whittaker)-containing Dulbecco's modified Eagle's medium containing 200 μM ascorbic acid, 0.25 μM dexamethasone, 10 μg/mL insulin (manufactured by TAKARA BIO INC.) and 0.5 mM 3-isobutyl-1-methylxanthine (manufactured by nacalai tesque, 19624-86). After 45 hours, the medium was exchanged with 2 mL of a 10% fetal bovine serum-containing Dulbecco's modified Eagle's medium containing 200 μM ascorbic acid and 5 μg/mL insulin. The medium was exchanged on after 2 days and 5 days, and the cells were cultured for 7 days, to give mature adipocytes.
As the evaluation of the enhancing action on glucose uptake, and also as the evaluation of the insulin-mimetic action, the amount of 2-deoxyglucose uptake into mature adipocytes during the stimulation of the test compound in the adipocytes was determined. As a test compound, a compound prepared in the Examples mentioned above or a commercially available compound was used.
After the termination of the culture, the medium was removed, and the cells were washed twice with a 0.1% (w/v) bovine serum albumin (manufactured by Sigma, A8022)-containing Dulbecco's modified Eagle's medium. Thereafter, 1 mL of the same medium containing a test compound in a concentration shown in each of Tables 20 to 23 was put to each well. The cells were cultured overnight at 37° C. in the presence of 5% carbon dioxide gas. Here, a group without containing the test compound was set as a negative control. After the overnight culture, the cells were washed twice with a HEPES buffer (140 mM NaCl, 5 mM KCl, 2.5 mM MgSO4, 1 mM CaCl2, 20 mM HEPES-Na (pH 7.4)). The amount 0.9 mL of the buffer containing a test compound in the same concentration was added to each well. The cells were cultured at 37° C. for 75 minutes. During the culture, as a positive control, there was set a group with addition of insulin to the well without addition of a test compound at a point 45 minutes passed so as to have a final concentration of 1 μg/mL. Thereafter, 100 μL of a HEPES buffer containing 0.5 μCi/mL 2-deoxy-[1,2-^3H(N)]-glucose (manufactured by PerkinElmer Life Sciences Inc., NET549A) and 1 mM 2-deoxyglucose (manufactured by nacalai tesque, 10722-11) was added thereto. The cells were cultured at 37° C. for additional 10 minutes. After the termination of the culture, the supernatant was removed, and the cells were washed three times with a phosphate buffer cooled to 4° C. Thereafter, 0.5 mL of a 1% Nonidet P-40-containing phosphate buffer was added to lyse the cells, whereby 2-deoxy-[1,2-^3H(N)]-glucose subjected to uptake into the cells was eluted. The radioactivity was determined with a liquid scintillation counter LS6500 (manufactured by Beckmann) using 25 μL of the supernatant with Ultima Gold (manufactured by PerkinElmer Life Sciences Inc., 6013329) as a scintillation cocktail. The enhancing action on glucose uptake was calculated by the following calculation formula, and shown by four ranks of +++, ++, + and +/−. • S: Amount of 2-deoxyglucose uptake in the presence of a test compound; • N: Amount of 2-deoxyglucose uptake in the negative control; and • P: Amount of 2-deoxyglucose uptake in the positive control; X=(S−N)/(P−N) (Judgment of Enhancing Action for 2-Deoxyglucose Uptake)

SMILES	activation at 3 µM (3T3-L1 cells) [%]	activation at 10 µM (3T3-L1 cells) [%]	activation at 3 µM [1] [%]	activation at 10 µM [1] [%]	activation at 30 µM [1] [%]	activation at 4 µM (3T3-L1 cells; 4 μM) [%]	activation at 13 µM (3T3-L1 cells; 13 μM) [%]	activation at 30 µM (3T3-L1 cells) [%]	activation at 1 µM (3T3-L1 cells) [%]
COc1ccc(C(=O)/C=C/c2ccc(Cl)cc2)c(OC(C)=O)c1CC=C(C)C [Compound (C079), 4-chloro-2′-acetoxy-3′-prenyl-4′-methoxychalcone]	60 to 100	> 100	> 100	60 to 100	> 100				
COc1ccc(C(=O)/C=C/c2ccc(O)cc2)c(OCc2ccccc2)c1CC=C(C)C [Compound (C077), 4-hydroxy-2′-benzyloxy-3′-prenyl-4′-methoxychalcone]	30 to 60			30 to 60	30 to 60				
COc1ccc(C(=O)/C=C/c2ccc(O)cc2)c(O)c1 [Compound (C020), 4,2′-dihydroxy-4′-methoxychalcone]				30 to 60	60 to 100	30 to 60	60 to 100		
CCOc1ccc(C(=O)/C=C/c2ccc(O)cc2)c(O)c1CC=C(C)C [Compound (C049), 4,2′-dihydroxy-3′-prenyl-4′-ethoxychalcone]	15 to 30	15 to 30		30 to 60	> 100				
CCOc1ccc(C(C)=O)c(O)c1C/C=C(\C)CCC=C(C)C [Compound (C048), 2′-hydroxy-3′-geranyl-4′-ethoxyacetophenone]		> 100	15 to 30	30 to 60	> 100			> 100	
CC(=O)c1ccc(OC2CCCCO2)c(CC=C(C)C)c1O (centres unmarked) [Compound (C044), 2′-hydroxy-3′-prenyl-4′-tetrahydropyranyloxyacetophenone]	30 to 60	60 to 100		30 to 60	> 100				
CC(=O)Oc1ccc(/C=C/C(=O)c2ccc(OC(C)=O)c(C/C=C(\C)CCC=C(C)C)c2OC(C)=O)cc1 [Compound (C061), 4,2′,4′-triacetoxy-3′-geranylchalcone]	60 to 100	> 100			30 to 60				
COc1ccc(C(C)=O)c(O)c1C/C=C(\C)CCC=C(C)C [Compound (C038), 2′-hydroxy-3′-geranyl-4′-methoxyacetophenone]	30 to 60	> 100		30 to 60	60 to 100				
COc1ccc(C(=O)/C=C/c2cccc([N+](=O)[O-])c2)c(O)c1CC=C(C)C [Compound (C076), 3-nitro-2′-hydroxy-3′-prenyl-4′-methoxychalcone]	> 100	> 100	15 to 30	30 to 60	> 100				60 to 100
CCOC(C)(C)C(O)CC/C(C)=C/Cc1c(O)ccc(C(=O)/C=C/c2ccc(O)cc2)c1O (centres unmarked) [TB6, 1-[3-(7-ethoxy-6-hydroxy-3,7-dimethyl-2-octenyl)-2,4-dihydroxyphenyl]-3-(4-hydroxyphenyl)-2-propen-1-one]	15 to 30	> 100			30 to 60				
CC(=O)c1ccc(OCC=C(C)C)cc1C [Compound (C059), 2′-methyl-4′-prenyloxyacetophenone]	15 to 30	30 to 60		15 to 30	30 to 60			> 100	
COc1ccc(/C=C/C(=O)c2ccc(OC)c(CC=C(C)C)c2O)c(O)c1CC=C(C)C [Compound (C072), 2,2′-dihydroxy-3,3′-diprenyl-4,4′-dimethoxychalcone]	> 100	> 100			30 to 60				
COc1ccc(/C=C/C(=O)c2ccc(OC)c(CC=C(C)C)c2O)cc1 [Compound (C035), 4,4′-dimethoxy-2′-hydroxy-3′-prenylchalcone]	60 to 100	> 100		30 to 60	60 to 100				
COc1ccc(C(=O)/C=C/c2ccc(OC(C)=O)cc2)c(OC(C)=O)c1CC=C(C)C [Compound (C032), 4,2′-diacetoxy-3′-prenyl-4′-methoxychalcone]	> 100	> 100	> 100	> 100	> 100				60 to 100
